What all share (assay type): functional, Homo sapiens
Parameters in all cases: dose or concentration left out as unconfirmed

For assay [1], the system named is Colon cancer organoid. Kind of assay: Identification of compartment-specific drug sensitivities in O14 CRC organoid-stroma F14 CAF co-cultures. Organoid is transduced with Lucferase2-P2A-EGFP lentivirus, fibroblast with Renilla-dsRed lentivirus. Dual-Glo Luciferase assay is used to report viability data.
The subject of assay [2] is Colon cancer organoid. The assay is described as follows: Identification of compartment-specific drug sensitivities in O06 CRC organoid-stroma F06 CAF co-cultures. Organoid is transduced with Lucferase2-P2A-EGFP lentivirus, fibroblast with Renilla-dsRed lentivirus. Dual-Glo Luciferase assay is used to report viability data.
In assay [3] the test system is Colon cancer organoid. The assay is described as follows: Identification of compartment-specific drug sensitivities in O20 CRC organoid-stroma F20 CAF co-cultures. Organoid is transduced with Lucferase2-P2A-EGFP lentivirus, fibroblast with Renilla-dsRed lentivirus. Dual-Glo Luciferase assay is used to report viability data.
Where [4] appears, read: Transduced with Lucferase2-P2A-EGFP lentivirus.
[5] abbreviates: Transduced with Renilla-dsRed lentivirus.

As for `CC(C)Oc1ccc(-c2c[nH]cc2CN(C)CCN)cc1`, the “Cell Viability” value was determined as 53.8658% in assay [1] (setting [4]); 109.482% in assay [1] (setting [5]); 47.5822% in assay [2] (setting [4]); 178.793% in assay [2] (setting [5]); 47.8011% in assay [3] (setting [4]); 252.195% in assay [3] (setting [5]).

Take `C[C@H](c1ccc(F)cc1)N(Cc1cccc(C(=O)O)c1)C(=O)c1cnc2ccccc2c1` [PF-05105679]: the “Cell Viability” value in assay [1] (setting [4]) is reported as 130.3%; in assay [1] (setting [5]), 106.537%; in assay [2] (setting [4]) it was 130.848%; in assay [2] (setting [5]), 113.872%; in assay [3] (setting [4]), 143.937%; in assay [3] (setting [5]) it was 111.508%.

For `CCc1cc2cc(NS(=O)(=O)c3ccc(C#N)cc3)ccc2n(CC)c1=O`, the “Cell Viability” value is 120.494% in assay [1] (setting [4]); 98.1699% in assay [1] (setting [5]); 88.2132% in assay [2] (setting [4]); 102.933% in assay [2] (setting [5]); 196.577% in assay [3] (setting [4]); 99.0217% in assay [3] (setting [5]).

`COc1cc(C(=O)N2CC[C@@H](O)[C@@H](N)C2)cc2nc(-c3cc4ccccc4n3CC3CC3)n(C)c12.Cl`: the “Cell Viability” value in assay [1] (setting [4]) is recorded as 110.648%; in assay [1] (setting [5]), 103.392%; in assay [2] (setting [4]) it was 124.227%; in assay [2] (setting [5]), 121.721%; in assay [3] (setting [4]), 99.5485%; in assay [3] (setting [5]) it was 114.018%.

As for `Cc1nc(-c2cn3c(n2)-c2ccc(-c4cnn(C(C)(C)C(N)=O)c4)cc2OCC3)n(C(C)C)n1` [TASELISIB], the “Cell Viability” value in assay [1] (setting [4]) worked out at 38.4959%; in assay [1] (setting [5]) it was 67.2929%; in assay [2] (setting [4]) it was 42.3556%; in assay [2] (setting [5]), 62.2904%; in assay [3] (setting [4]), 15.8824%; in assay [3] (setting [5]), 146.008%.

As for `N#CN1CC[C@@H](C(=O)Nc2nc3c(s2)CN(C(=O)CN=[N+]=[N-])CC3)C1` [JYQ88], the “Cell Viability” value in assay [1] (setting [4]) is 68.7487%; in assay [1] (setting [5]) it was 88.1605%; in assay [2] (setting [4]), 72.1963%; in assay [2] (setting [5]) it was 58.5555%; in assay [3] (setting [4]), 64.1943%; in assay [3] (setting [5]), 84.2967%.

With `Cc1cc(C)cc([C@H]2c3cc(C)ccc3NC(=O)CN2C(=O)c2ccc(Br)s2)c1`, the “Cell Viability” value in assay [1] (setting [4]) is reported as 153.941%; in assay [1] (setting [5]) it was 101.442%; in assay [2] (setting [4]), 94.0417%; in assay [2] (setting [5]), 115.465%; in assay [3] (setting [4]), 134.675%; in assay [3] (setting [5]), 98.7461%.

On to `CNCc1ccccc1-c1csc([C@@H](C)Nc2nc(C)nc3cc(OC)c(OC)cc23)c1` [BAY-293], for which the “Cell Viability” value in assay [1] (setting [4]) turned out to be 65.4303%; in assay [1] (setting [5]), 97.5193%; in assay [2] (setting [4]), 41.2905%; in assay [2] (setting [5]), 141.656%; in assay [3] (setting [4]), 78.2703%; in assay [3] (setting [5]) it was 145.24%.

For `CN(C)C(=O)Cn1cc(-c2ccc(-c3nnc4ccccn34)cc2)cn1`, the “Cell Viability” value amounted to 99.1399% in assay [1] (setting [4]); 78.8551% in assay [1] (setting [5]); 105.212% in assay [2] (setting [4]); 110.192% in assay [2] (setting [5]); 167.784% in assay [3] (setting [4]); 52.6743% in assay [3] (setting [5]).

As to `CCCCNNC(=O)c1ccc(Br)cc1`, the “Cell Viability” value in assay [1] (setting [4]) stood at 96.2748%; in assay [1] (setting [5]), 91.9269%; in assay [2] (setting [4]) it was 113.204%; in assay [2] (setting [5]) it was 110.004%; in assay [3] (setting [4]), 131.97%; in assay [3] (setting [5]), 114.511%.

Regarding `CC(C)Oc1ccc(-c2c[nH]cc2CN(C)CCO)cc1`, the “Cell Viability” value in assay [1] (setting [4]) is reported as 129.064%; in assay [1] (setting [5]), 102.719%; in assay [2] (setting [4]), 112.392%; in assay [2] (setting [5]) it was 114.959%; in assay [3] (setting [4]), 114.429%; in assay [3] (setting [5]) it was 121.653%.

For `COc1ccccc1-c1cc(N2CCN(C(=O)OC(C)(C)C)CC2)c(N)nn1`, the “Cell Viability” value in assay [1] (setting [4]) is on record as 120.209%; in assay [1] (setting [5]), 94.5585%; in assay [2] (setting [4]), 99.4085%; in assay [2] (setting [5]), 102.712%; in assay [3] (setting [4]), 123.55%; in assay [3] (setting [5]), 160.936%.

Regarding `CN(C)[C@H]1CN(C2CCc3cccc(F)c32)C[C@@H]1c1ccc(N2CCN(S(C)(=O)=O)CC2)cc1` (some centres undefined), the “Cell Viability” value in assay [1] (setting [4]) amounted to 77.8807%; in assay [1] (setting [5]), 109.764%; in assay [2] (setting [4]), 82.1891%; in assay [2] (setting [5]), 127.07%; in assay [3] (setting [4]), 31.9931%; in assay [3] (setting [5]), 145.189%.

Take `Cc1ccc2nc(CNCCCOc3ccccc3)cc(O)c2c1` [UCSF924]: the “Cell Viability” value is 102.025% in assay [1] (setting [4]); 95.7371% in assay [1] (setting [5]); 107.729% in assay [2] (setting [4]); 156.395% in assay [2] (setting [5]); 115.834% in assay [3] (setting [4]); 125.381% in assay [3] (setting [5]).

For the compound `CNC(=O)c1ccccc1Nc1cc(Nc2ccc(N3CCOCC3)cc2OC)ncc1C(F)(F)F` [VS-4718], the “Cell Viability” value in assay [1] (setting [4]) was 18.7172%; in assay [1] (setting [5]) it was 41.7282%; in assay [2] (setting [4]) it was 52.8737%; in assay [2] (setting [5]), 57.2971%; in assay [3] (setting [4]), 13.9942%; in assay [3] (setting [5]), 72.4438%.

On to `O=C(NNS(=O)(=O)c1ccccc1)c1cc(-c2ccnnc2)ccc1F` [WM-2474], for which the “Cell Viability” value in assay [1] (setting [4]) is given as 98.8891%; in assay [1] (setting [5]), 109.079%; in assay [2] (setting [4]) it was 92.1572%; in assay [2] (setting [5]), 93.3483%; in assay [3] (setting [4]) it was 104.944%; in assay [3] (setting [5]) it was 126.08%.

Regarding `CN(C)C(=O)/C(C#N)=C/c1ccc(-c2nc3cnc4c(ccn4C)c3n2C2CCCCC2)o1`, the “Cell Viability” value turned out to be 110.125% in assay [1] (setting [4]); 86.2886% in assay [1] (setting [5]); 28.6002% in assay [2] (setting [4]); 127.582% in assay [2] (setting [5]); 49.7098% in assay [3] (setting [4]); 127.191% in assay [3] (setting [5]).

As to `CC1=C(C#N)C(c2ccc3c(c2)c(NC(=O)c2ccccc2C)nn3C)C(C#N)=C(C)N1` [BAY-974], the “Cell Viability” value in assay [1] (setting [4]) was determined as 92.3005%; in assay [1] (setting [5]), 117.089%; in assay [2] (setting [4]), 90.4588%; in assay [2] (setting [5]), 87.5124%; in assay [3] (setting [4]) it was 105.235%; in assay [3] (setting [5]), 128.576%.

For `CO[C@@H](C)c1c(Nc2ccc([C@@H](N(C)C(=O)C3CCS(=O)(=O)CC3)C(F)(F)F)cc2)cnc2cc(Cl)nn12` [NVS-MALT1-C], the “Cell Viability” value in assay [1] (setting [4]) is 71.9282%; in assay [1] (setting [5]) it was 88.3744%; in assay [2] (setting [4]) it was 50.6957%; in assay [2] (setting [5]), 73.6522%; in assay [3] (setting [4]), 83.7008%; in assay [3] (setting [5]) it was 108.215%.

The values are drawn from ChEMBL document CHEMBL5608141, “Identification of compartment-specific drug sensitivities in CRC organoid-stroma co-cultures” (2024).
